Source: US6455700B1, “Process for preparing guanidine and amidine derivatives” (Boehringer Ingelheim Pharma KG., priority 1998, dated 2002)
Counter-ions that a name gives are not always drawn.

How the values were obtained:
[1] = biological target: T1, NK1 receptor (substance P receptor) (Homo sapiens, UniProt P25103); assay: NK1 receptor affinity, displacement of 125I-labelled substance P on IM-9 cells; type: binding; conditions: human lymphoblastoma cells (IM-9) with cloned NK1 receptors
T1 construct: expressed in transfected cells; host or cells: human lymphoblastoma cells (IM-9)
Procedure: Results of investigations into the compound according to the invention: The receptor affinity for the NK1 receptor (substance P receptor) is determined on human lymphoblastoma cells (IM-9) with cloned NK1 receptors, by measuring the displacement of ^125I-labelled substance P. The Ki values thus obtained show the efficacy of the compounds.

T1 sequence (P25103 whole entry): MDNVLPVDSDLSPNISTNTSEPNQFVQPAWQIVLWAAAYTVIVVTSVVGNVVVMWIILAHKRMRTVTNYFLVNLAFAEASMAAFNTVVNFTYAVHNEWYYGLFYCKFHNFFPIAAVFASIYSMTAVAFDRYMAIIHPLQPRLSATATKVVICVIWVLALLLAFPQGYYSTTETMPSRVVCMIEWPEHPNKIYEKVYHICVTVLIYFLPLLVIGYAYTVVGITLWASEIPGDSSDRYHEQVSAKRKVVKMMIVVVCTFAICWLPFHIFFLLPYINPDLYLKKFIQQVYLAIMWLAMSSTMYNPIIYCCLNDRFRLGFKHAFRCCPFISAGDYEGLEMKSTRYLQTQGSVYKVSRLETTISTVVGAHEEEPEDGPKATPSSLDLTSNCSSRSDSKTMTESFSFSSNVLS

Row | Ki [1] [pM] | melting point | Structure (SMILES)
1 | 870 |  | CN(CCc1cc(C(F)(F)F)cc(C(F)(F)F)c1)C(=O)[C@H](c1ccccc1)N1CCN(/C(=N/C(=O)c2ccccc2)Nc2ccccc2)CC1 [Example 29]
2 | 1450 | 182 to 188 °C (dec.) | CN(CCc1cc(C(F)(F)F)cc(C(F)(F)F)c1)C(=O)C(c1ccccc1)N1CCN(/C(=N\C2CCCCC2)NC2CCCCC2)CC1 (centres unmarked) [Example 7]
3 | 140 | 126 to 140 °C | C/N=C(\NC)N1CCN(C(C(=O)N(C)CCc2cc(C(F)(F)F)cc(C(F)(F)F)c2)c2ccccc2)CC1 (centres unmarked) [Example 9]
4 | 4160 |  | Cc1ccc(/N=C(\Nc2ccc(C)cc2)N2CCN(C(C(=O)N(C)CCc3cc(C(F)(F)F)cc(C(F)(F)F)c3)c3ccccc3)CC2)cc1 (centres unmarked) [Example 28]
5 | 13200 |  | CN(CCc1cc(C(F)(F)F)cc(C(F)(F)F)c1)C(=O)C(c1ccccc1)N1CCN(/C(=N/C(=O)c2ccccc2)NCc2ccccc2)CC1 (centres unmarked) [Example 33]
6 | 190 |  | CN(CCc1cc(C(F)(F)F)cc(C(F)(F)F)c1)C(=O)[C@H](c1ccccc1)N1CCN(C2=NCCN2C)CC1 [Example 8]
7 | 1110 | 124 to 128 °C | CN(CCc1cc(C(F)(F)F)cc(C(F)(F)F)c1)C(=O)[C@H](c1ccccc1)N1CCN(/C(=N/C(=O)c2ccccc2)N(C)C)CC1.Cl [Example 27]
8 | 880 |  | CN(CCc1cc(C(F)(F)F)cc(C(F)(F)F)c1)C(=O)C(c1ccccc1)N1CCN(/C(=N\C2CCCCC2)N(C)C2CCCCC2)CC1 (centres unmarked) [Example 6]
9 | 530 | 176 to 186 °C (dec.) | CC(C)/N=C(/NC(C)C)N1CCN(C(C(=O)N(C)CCc2cc(C(F)(F)F)cc(C(F)(F)F)c2)c2ccccc2)CC1 (racemic) [Example 4]
10 | 300 | 163 to 173 °C | CN(CCc1cc(C(F)(F)F)cc(C(F)(F)F)c1)C(=O)C(c1ccccc1)N1CCN(C2=NCCN2)CC1 (centres unmarked) [Example 2]
11 | 8960 |  | CC(C)N/C(=N\C(=O)c1ccccc1)N1CCN(C(C(=O)N(C)CCc2cc(C(F)(F)F)cc(C(F)(F)F)c2)c2ccccc2)CC1 (centres unmarked) [Example 31]
12 | 450 |  | CN(CCc1cc(C(F)(F)F)cc(C(F)(F)F)c1)C(=O)C(c1ccccc1)N1CCN(C(=N)N)CC1 (racemic) [Example 1, (R,S)-1-Amidino-4-[2-phenylacetic acid-N-methyl-N-(3,5-bis-trifluoromethyl-phenyl-ethyl)-amide]-piperazine, dihydrochloride]
13 | 200 |  | CC(C)NC(=N)N1CCN(C(C(=O)N(C)CCc2cc(C(F)(F)F)cc(C(F)(F)F)c2)c2ccccc2)CC1 (centres unmarked) [Example 32]
14 | 170 |  | CN(CCc1cc(C(F)(F)F)cc(C(F)(F)F)c1)C(=O)C(c1ccccc1)N1CCN(C(=N)N2CCOCC2)CC1 (centres unmarked) [Example 30]
15 | 370 |  | CN(CCc1cc(C(F)(F)F)cc(C(F)(F)F)c1)C(=O)C(c1ccccc1)N1CCN(/C(N)=N/Cc2ccccc2)CC1 (centres unmarked) [Example 34]
16 | 6280 | 174 to 184 °C (dec.) | CCN/C(=N/C(C)(C)C)N1CCN(C(C(=O)N(C)CCc2cc(C(F)(F)F)cc(C(F)(F)F)c2)c2ccccc2)CC1 (centres unmarked) [Example 5]
17 | 320 | 240 to 245 °C (dec.) | CN(CCc1cc(C(F)(F)F)cc(C(F)(F)F)c1)C(=O)C(c1ccccc1)N1CCN(C(=N)Nc2ccccc2)CC1 (centres unmarked) [Example 12]
18 | 120 |  | CN(C)C(=N)N1CCN(C(C(=O)N(C)CCc2cc(C(F)(F)F)cc(C(F)(F)F)c2)c2ccccc2)CC1 (centres unmarked) [Example 10]
19 | 200 | 69 to 79 °C | CNC(=N)N1CCN(C(C(=O)N(C)CCc2cc(C(F)(F)F)cc(C(F)(F)F)c2)c2ccccc2)CC1 (centres unmarked) [Example 3]
20 |  | 128 to 138 °C | CN(CCc1cc(C(F)(F)F)cc(C(F)(F)F)c1)C(=O)C(c1ccccc1)N1CCN(C(=N)N)CC1 (racemic) (as salt: hydrochloride) [Example 1, (R,S)-1-Amidino-4-[2-phenylacetic acid-N-methyl-N-(3,5-bis-trifluoromethyl-phenyl-ethyl)-amide]-piperazine, dihydrochloride]

Row | Structure (SMILES) | Ki [1] [pM] | melting point
21 | CN(CC(c1ccc(Cl)c(Cl)c1)N1CCN(C(=N)N)CC1)C(=O)Cc1cc(C(F)(F)F)cc(C(F)(F)F)c1 (centres unmarked) [Example 35] | 780 | 
